Test system: T1, IaIAMT
T1 construct: full-length cDNA from leaf RNA, N-terminal MBP fusion (pCold-MBP), E. coli BL21(DE3), purified on gelatinized corn starch; MBP cleavage not mentioned
Assay: radiochemical methyltransferase assay, […]-SAM, ethyl acetate extraction, scintillation counting
Format: biochemical, Illicium anisatum
Settings: co-substrate [Me-14C]-SAM; sodium phosphate pH 7.0; 25°C; 10 min; IAA 0–400 µM; MBP fusion; read-out: apparent Km

Km: 122 ± 32.9 µM
SMILES: O=C(O)Cc1c[nH]c2ccccc12 [IAA, indole-3-acetic acid]

From article PMC11500593, “Molecular cloning and biochemical characterization of indole-3-acetic acid methyltransferase from Japanese star anise (Illicium anisatum)” (Plant Biotechnology, 2024)
